Source: paper PMC12808100, “The non-catalytic DNA polymerase ε subunit is an NPF motif recognition protein” (Nature Communications, 2025)

Legend:
UBE2N = molecular target: T1, UBE2N (Homo sapiens, UniProt P61088); experiment: nHU-MS peptide bait, prey UBE2N; conditions: FigureS2 Volcano; prey UBE2N
T1 sequence (P61088 1-152): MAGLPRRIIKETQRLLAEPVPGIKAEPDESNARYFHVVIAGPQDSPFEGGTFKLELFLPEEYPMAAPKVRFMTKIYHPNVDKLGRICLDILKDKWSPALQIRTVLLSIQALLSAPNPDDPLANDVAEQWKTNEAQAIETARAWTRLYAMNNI

[1] = test system: endogenous proteins of Jurkat extract; experiment: Single-point nHU-MS with biotinylated NPF motif peptide baits, proteome-wide; format: binding, human; conditions: FigureS2 Volcano; prey WASHC3
Description: To identify the partners of NPF motifs, we used the native holdup (nHU) assay that was recently developed by our team (Fig. 1B). The holdup approach has been extensively used to determine equilibrium dissociation constants of transient interactions mediated by PDZ and SH3 domains, 14-3-3, and human papilloma virus E6 proteins, and even nucleic acid-protein interactions[7],[30]–[35]. In the nHU experiments, a purified bait molecule, or a control compound, is immobilized on a resin at high concentration (typically 10 μM, or higher) and these resin stocks are subsequently mixed with dilute cell extracts. […] This liquid phase contains the unbound prey molecules at near binding equilibrium that can be quantified using selective and quantitative analytical approaches, such as mass spectrometry. Therefore, proteins that interact with the bait molecule will appear to be depleted in the solvent phase and by measuring its relative concentration compared to the control nHU experiment, the degree of binding (θ) can be determined that can be converted to apparent steady-state dissociation constants, according to:1 θ=1−Ifree/Itot=Cbait/Cbait+Kapp where Itot and Ifree are the measured total and bait-depleted equilibrium mass spectrometry total ion intensities of prey proteins, Cbait is the bait molecule concentration and Kapp is the apparent dissociation constant. […]

GYPC = molecular target: T2, GYPC (Homo sapiens, UniProt P04921); experiment: nHU-MS peptide bait, prey GYPC; conditions: FigureS2 Volcano; prey GYPC
T2 sequence (P04921 1-128): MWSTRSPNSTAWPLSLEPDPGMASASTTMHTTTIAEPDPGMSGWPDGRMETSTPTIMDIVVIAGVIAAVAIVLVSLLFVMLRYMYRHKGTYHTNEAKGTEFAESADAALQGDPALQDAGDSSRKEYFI

EHD4 = molecular target: T3, EHD4 (Homo sapiens, UniProt Q9H223); experiment: nHU-MS peptide bait, prey EHD4; conditions: FigureS2 Volcano; prey EHD4
T3 sequence (Q9H223 1-541): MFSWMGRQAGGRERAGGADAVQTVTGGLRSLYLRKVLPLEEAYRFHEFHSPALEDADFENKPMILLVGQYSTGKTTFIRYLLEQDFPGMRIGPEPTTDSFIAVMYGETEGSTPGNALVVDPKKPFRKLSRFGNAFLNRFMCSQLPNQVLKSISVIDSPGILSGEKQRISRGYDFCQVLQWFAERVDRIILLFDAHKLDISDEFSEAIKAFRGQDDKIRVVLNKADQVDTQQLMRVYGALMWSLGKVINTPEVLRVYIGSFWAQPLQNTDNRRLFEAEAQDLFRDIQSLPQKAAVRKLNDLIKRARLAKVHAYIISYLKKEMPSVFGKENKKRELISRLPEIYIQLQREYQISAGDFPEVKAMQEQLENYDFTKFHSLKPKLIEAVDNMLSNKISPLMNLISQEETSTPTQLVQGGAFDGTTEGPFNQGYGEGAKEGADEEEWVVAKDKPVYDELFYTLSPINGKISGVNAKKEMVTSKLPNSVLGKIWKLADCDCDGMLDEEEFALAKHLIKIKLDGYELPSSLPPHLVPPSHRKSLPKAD

[2] = molecular target: His6-avi-MBP-tagged POLE2; experiment: Single-point nHU-MS with recombinant His6-avi-MBP-POLE2 bait, Jurkat extract; format: binding, human; conditions: significant apparent affinity of endogenous prey protein for POLE2 bait; single-point nHU-MS; Figure S11
Description: So far, our study only focused on a few hand-picked NPF motifs and studied them as short synthetic peptides. However, many other proteins may be present in the proteome that could bind to POLE2 and their putative NPF motifs are embedded in their natural structures that can greatly affect their binding properties. To investigate interactions between POLE2 and intact, full length proteins proteome-wide, we used nHU-MS experiments with recombinant His6-avi-MBP-tagged POLE2 as bait and purified His6-avi-MBP as a control. Even though we are aware that this recombinant POLE2 may bind to NPF motifs with a somewhat altered affinity, we assumed that this would affect all NPF motif-mediated interactions equally, allowing an unbiased affinity ranking of all identified partners. Single point nHU measurements were performed at 26 μM POLE2 concentration and the recovered supernatant was measured by label free proteomic MS measurements (Fig. 3A, Supplementary Figs. 8A, 9, Supplementary Data 1).
Single-point nHU experiments with protein baits were carried out nearly identically with two key modifications. First, the resin saturation step was carried out by mixing 50 μl streptavidin resin with 0.5−1 ml 50 μM biotinylated protein solution and the mixture was incubated for 1.5 h at 4 °C with constant agitation. Second, instead of using estimated bait concentrations, we measured it experimentally. An extra aliquot of resin stock was prepared alongside the nHU samples that were identically processed that were used to eluate the immobilized proteins under harsh conditions, in order to experimentally quantify the Cbait by using densitometry of Coomassie stained SDS-PAGE that included a protein calibration series. For this, 50 μl bait-saturated resin aliquots were mixed with 200 μl 4x Laemmli Sample Buffer (120 mM Tris-HCl pH 7, 8% SDS, 100 mM DTT, 32% glycerol, 0.004% bromphenol blue, 1% β-mercaptoethanol), instead of cell extract. After 15 min incubation at 95 °C, these samples were analyzed by SDS-PAGE using protein calibration standard, made from recombinant MBP. Densitometry was carried out after Coomassie staining on raw Tif images by using Fiji ImageJ 1.53c and experimental bait concentration were determined by adjusting for molecular weight differences between MBP and MBP-POLE2 constructs.
Samples were digested overnight at 37 °C.

With NSVD [WDHD1] the “-log10P” value (UBE2N) was 4.615, the log2FC (UBE2N) was -0.5674 and the log2FC [1] was -0.6642. The “-log10P” value (GYPC) was 4.7052, the log2FC (GYPC) was -0.6216 and the “-log10P” value (EHD4) was 4.524. For the same substance, the log2FC (EHD4) was -0.6115 and the pKapp_sign [2] was 5.025.
